pIC50, pKi: −log10 of the molar value.

The first assay deals with T1, Serine racemase (Mus musculus, UniProt Q9QZX7).
T1 sequence (Q9QZX7 whole entry): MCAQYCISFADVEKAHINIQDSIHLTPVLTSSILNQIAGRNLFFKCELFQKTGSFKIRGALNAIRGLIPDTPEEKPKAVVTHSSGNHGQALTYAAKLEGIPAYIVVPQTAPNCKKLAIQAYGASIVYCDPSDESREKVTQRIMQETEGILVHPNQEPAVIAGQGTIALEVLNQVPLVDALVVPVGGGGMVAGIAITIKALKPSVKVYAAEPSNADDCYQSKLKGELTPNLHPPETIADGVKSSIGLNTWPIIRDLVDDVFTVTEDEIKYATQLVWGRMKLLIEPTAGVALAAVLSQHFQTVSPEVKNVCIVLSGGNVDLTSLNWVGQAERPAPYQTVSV
In words: Inhibition of mouse serine racemase using L-serine substrate by reversed-phase HPLC analysis.
As usually defined, the pIC50 is the negative decadic logarithm of the IC50, by convention in mol/L. Regarding `O=C(O)C(O)C(=O)O`, the pIC50 was 4.03. Still for that read-out and setting: the result for `O=C(O)CC(=O)O` [MALONIC ACID] reads 4.17. The same measure, in the same setting: the result for `NC(C(=O)O)C(=O)O` reads 3.40; that for `CC(C)(C(=O)O)C(=O)O`, 2.25. For `O=C(O)C(Cl)(Cl)C(=O)O`, the pIC50 was 4.24.

`O=C(O)C(F)(F)C(=O)O` gave a pIC50 of 2.67. Turning to `O=C(O)C(C(=O)O)c1ccsc1`, the pIC50 was 2.15. Still for that read-out and setting: the result for `O=C(O)C(Cl)C(=O)O` reads 3.11. On the same count and under the same terms, for `CC(C(=O)O)C(=O)O` [METHYLMALONIC ACID] the value was 2.73. On the same count and under the same terms, for `O=C(O)C(CO)(CO)C(=O)O` the value was 1.39.

A further assay concerns the target T1, Serine racemase. Briefly: Inhibition of mouse serine racemase by Lineweaver-Burk plot.
As a reminder, the pKi is the negative decadic logarithm of the Ki, by convention in mol/L. High values mean a low Ki, low ones a high Ki. Consider `O=C(O)CC(=O)O` [MALONIC ACID], for which the pKi is 4.57. Compound `O=C(O)C(Cl)(Cl)C(=O)O` gave a pKi of 4.72.
